Experiment [1] concerns the target T1, P2X7 (Homo sapiens, UniProt Q99572).
T1 sequence (Q99572 1-595): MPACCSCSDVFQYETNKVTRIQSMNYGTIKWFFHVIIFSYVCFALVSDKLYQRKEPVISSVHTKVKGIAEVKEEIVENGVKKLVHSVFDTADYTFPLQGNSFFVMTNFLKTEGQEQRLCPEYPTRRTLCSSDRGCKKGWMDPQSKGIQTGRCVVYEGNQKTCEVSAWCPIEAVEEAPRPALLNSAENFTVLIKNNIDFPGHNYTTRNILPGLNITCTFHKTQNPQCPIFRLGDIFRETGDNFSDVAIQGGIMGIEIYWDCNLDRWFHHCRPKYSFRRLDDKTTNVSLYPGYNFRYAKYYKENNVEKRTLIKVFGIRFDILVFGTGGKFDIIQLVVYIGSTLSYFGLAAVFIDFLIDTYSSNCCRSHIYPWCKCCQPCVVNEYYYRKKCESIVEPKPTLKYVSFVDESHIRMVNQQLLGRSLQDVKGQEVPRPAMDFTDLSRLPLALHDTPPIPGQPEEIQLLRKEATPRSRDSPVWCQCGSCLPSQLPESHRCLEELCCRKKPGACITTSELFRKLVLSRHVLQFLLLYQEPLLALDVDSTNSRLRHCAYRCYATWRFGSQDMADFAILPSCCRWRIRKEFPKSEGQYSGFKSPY
Nature of the experiment: Pore permeation assay (YO PRO dye uptake, BzATP-induced). The experiment is classed as cell-based. Also on record: expressed in transfected cells; host or cells: HEK293. Particulars: HEK293 transfected with human P2X7 receptor; YO PRO dye 1 uM, BzATP 10 uM; read-out: hP2X7 IC50. How it is done:
Agonist-induced pore formation was determined by measuring cellular uptake of YO PRO fluorescence dye in HEK293 transfected with human P2X7 receptor. A HEK293 cell over expressing human P2X7 was harvested using HQTase reagent to detach the cells from T75 cm flask. The harvested cells are centrifuged @ 1200 rpm for 5 min at room temperature. The viability of cells was determined by Trypan blue dye and the cells are plated @ 10,000 cell/well in 50 ul volume in a 384 W BD Poly lysine coated plate and incubated overnight at 37 C. After overnight incubation, the culture medium was replaced with 35 ul/well assay buffer (5 mM KCl, 0.1 mM CaCl2, 5 mM Glucose, 10 mM HEPES buffer pH7.4 containing 125 mM NaCl. The serial dilution of compounds was performed using Bravo liquid handling instrument and the compounds were added using Bravo to the cell assay plate starting at 2.5 uM with three dilutions for 10 points. The positive control inhibitor compound was added to column 23. The plate was shaken slowly on a plate shaker for 10 seconds. The cells were incubated with the compound for 20 minutes at room temperature. After the incubation period, YO PRO dye (1 uM) along with BzATP (10 uM) were added to cells at 10 ul/well. The plate was centrifuged at 1000 rpm for 5 seconds and incubated at room temperature for 30 minutes. The uptake of YO PRO dye into the cells was measured using Envision Fluorescence plate reader instrument (Perkin Elmer).

Experiment [2] has as its target T1, P2X7. Nature of the experiment: IL-1β release assay in THP-1 cells (sandwich ELISA). The experiment is classed as cell-based. Also on record: release of mature IL-1β in the culture medium of THP-1 cells; endogenous in cells; host or cells: THP-1 cells (PMA-differentiated, LPS-primed). Particulars: PMA, LPS primed, stimulated with 0.8 mM BzATP, mature IL-1β release, read-out: hTHP-1/IL-ib IC50. How it is done:
The activation of P2X7 by ATP leads to a fast transient activation of cells resulting in influx of Ca^2+ followed by conversion of pro-IL-1β to active IL-1β. The functional activity of P2X7 compounds was measured by the release of mature IL-1β in the culture medium of THP-1 cells, detected by sandwich ELISA. Cells were maintained in complete growth medium (RPMI 1640+10% HI-FCS+2 mM L-glutamine+1×PS). […] THP-1 cells were harvested from the flask in 50 ml by centrifugation for 3 min at 100 g. The cells were resuspended to 2×10^5 cells/ml in medium supplemented with 0.5 μM PMA and incubated. The cells were washed and resuspended to 1.5×10^5 cells/ml in medium complemented with 10 ng/ml LPS, and the cells were primed for 4 h at 37° C., 5% CO2. After addition of 20 μL of prediluted test compounds, blank, standard and control reagents, cells were incubated for a further 20 min at 37° C. and stimulated with 0.8 mM BzATP for 30 minutes. The cells were centrifuged, supernatant was collected and the presence of mature IL-1β was detected using Dual human IL-1b kit following manufacturer's instruction. The tetrahydrobenzodiazepine analogs effectively modulated the activity of P2X7 in the cells as measured by the levels of pro-inflammatory cytokine IL-1β, which is released by the activation of P2X7 receptor.

Each structure is given as a SMILES string.

For the compound `O=C(NCC1CCCC(F)(F)C1)c1c(Cl)ccc2nc(N3CCC(N4CCCC4)C3)ccc12` (stereo not shown) [Compound 34, 6-Chloro-2-(3-pyrrolidinyl-pyrrolidin-1-yl)-quinoline-5-carboxylic acid (3,3-difluoro-cyclohexylmethyl)-amide], the IC50 on P2X7 [1] and on P2X7 [2] was 10 to 100 nM in each case.

As to `O=C(NCC1CCCC(F)(F)C1)c1c(Cl)ccc2nc(N3CCC(CO)C3)ccc12` (stereo not shown) [Compound 35, 6-Chloro-2-(3-hydroxymethylpyrrolidin-1-yl)-quinoline-5-carboxylic acid (3,3-difluoro-cyclohexylmethyl)-amide], the IC50 on P2X7 [1] and at P2X7 [2] was 10 to 100 nM each time.

For `O=C(NCC1(O)CCCC(F)(F)C1)c1c(Cl)ccc2nc(N3CC[C@H](F)C3)ccc12` (stereo partly drawn) [Compound 36, 6-Chloro-2-((S)-3-fluoropyrrolidin-1-yl)-quinoline-5-carboxylic acid (3,3-difluoro-1-hydroxycyclohexylmethyl)-amide], the IC50 on P2X7 [1] and on P2X7 [2] was 10 to 100 nM each time.

As to `O=C(NCC1(O)CCCC(F)(F)C1)c1c(Cl)ccc2nc(N3CC[C@@H](F)C3)ccc12` (stereo partly drawn) [Compound 37, 6-Chloro-2-((R)-3-fluoropyrrolidin-1-yl)-quinoline-5-carboxylic acid (3,3-difluoro-1-hydroxycyclohexylmethyl)-amide], the IC50 at P2X7 [1] and at P2X7 [2] was 10 to 100 nM throughout.

Consider `O=C(NCC1(O)CCCC(F)(F)C1)c1c(Cl)ccc2nc(N3CCC(F)C3)ccc12` (stereo not shown) [Compound 38, 6-Chloro-2-(3-fluoropyrrolidin-1-yl)-quinoline-5-carboxylic acid (3,3-difluoro-1-hydroxycyclohexylmethyl)-amide], for which the IC50 on P2X7 [1] and on P2X7 [2] was 10 to 100 nM each time.

Consider `O=C(NCC1CCCC(F)(F)C1)c1c(Cl)ccc2nc(N3CCC(F)C3)ccc12` (stereo not shown) [Compound 39, 6-Chloro-2-(3-fluoropyrrolidin-1-yl)-quinoline-5-carboxylic acid (3,3-difluoro-cyclohexylmethyl)-amide], for which the IC50 at P2X7 [1] and on P2X7 [2] was 10 to 100 nM in each case.

`O=C(NCC1CCC(F)(F)CC1)c1c(Cl)ccc2nc(N3CC[C@H](F)C3)ccc12` [Compound 41, 6-Chloro-2-((S)-3-fluoropyrrolidin-1-yl)-quinoline-5-carboxylic acid (4,4-difluoro-cyclohexylmethyl)-amide]: the IC50 on P2X7 [1] and on P2X7 [2] was 10 to 100 nM each time.

`O=C(NCC1CCC(F)(F)CC1)c1c(Cl)ccc2nc(C3=CCCC3)ccc12` [Compound 42, 6-Chloro-2-cyclopent-1-enyl-quinoline-5-carboxylic acid (4,4-difluoro-cyclohexyl methyl)-amide]: the IC50 was 10 to 100 nM at P2X7 [1] and 101 to 500 nM on P2X7 [2].

With `CN(C)c1ccc2c(C(=O)NCC3CCC(F)(F)CC3)c(Cl)ccc2n1` [Compound 44], the IC50 on P2X7 [1] and on P2X7 [2] was 10 to 100 nM each time.

For the compound `O=C(NCC1CCC(F)(F)CC1)c1c(Cl)ccc2nc(N3CCC(CO)C3)ccc12` (stereo not shown) [Compound 45], the IC50 at P2X7 [1] and on P2X7 [2] was 10 to 100 nM each time.

`O=C(NCC1(O)CCCC(F)(F)C1)c1c(Cl)ccc2nc(N3CCC(F)(F)C3)ccc12` (stereo not shown) [Compound 46, 6-Chloro-2-(3,3-difluoropyrrolidin-1-yl)-quinoline-5-carboxylic acid (3,3-difluoro-1-hydroxycyclohexylmethyl)-amide]: the IC50 on P2X7 [1] and at P2X7 [2] was 10 to 100 nM throughout.

Consider `O=C(NCC1CCC(F)(F)CC1)c1c(Cl)ccc2nc(C3CCOCC3)ccc12` [Compound 47, 6-Chloro-2-(tetrahydro-pyran-4-yl)-quinoline-5-carboxylic acid (4,4-difluoro-cyclohexyl methyl)-amide], for which the IC50 at P2X7 [1] was in the range of 10 to 100 nM; on P2X7 [2], 101 to 500 nM.

Regarding `O=C(NCC1CCC(F)(F)CC1)c1c(Cl)ccc2nc(C3CCCCC3)ccc12` [Compound 48, 6-Chloro-2-cyclohexyl-quinoline-5-carboxylic acid (4,4-difluoro-cyclohexylmethyl)-amide], the IC50 on P2X7 [1] is 10 to 100 nM; at P2X7 [2], 101 to 500 nM.

On to `O=C(NCC1CCC(F)(F)CC1)c1c(Cl)ccc2nc(N3CCC3)ccc12` [Compound 49, 2-(azetidin-1-yl)-6-Chloro-quinoline-5-carboxylic acid (4,4-difluoro-cyclohexylmethyl)-amide], for which the IC50 on P2X7 [1] and at P2X7 [2] was 10 to 100 nM each time.

As for `O=C(NCC1CCC(F)(F)CC1)c1c(Cl)ccc2nc(N3CCCC3)ccc12` [Compound 50], the IC50 lay within 10 to 100 nM on P2X7 [1] and 101 to 500 nM on P2X7 [2].

For the compound `CC(C)(C)OC(=O)N1CC=C(c2ccc3c(C(=O)NCC4CCC(F)(F)CC4)c(Cl)ccc3n2)CC1` [Compound 51, 4-{6-Chloro-5-[(4,4-difluoro-cyclohexylmethyl)-carbamoyl]-quinolin-2-yl}-3,6-dihydro-2H-pyridine-1-carboxylic acid tert-butyl ester], the IC50 lay in the range of 10 to 100 nM on P2X7 [1] and 101 to 500 nM at P2X7 [2].

For `CN(C)C1CCN(c2ccc3c(C(=O)NCC4CCC(F)(F)CC4)c(Cl)ccc3n2)C1` (stereo not shown) [Compound 52], the figures for the IC50 on P2X7 [1] and on P2X7 [2] were 10 to 100 nM and 101 to 500 nM, respectively.

Consider `O=C(NCC1(O)CCCC(F)(F)C1)c1c(Cl)ccc2nc(N3CCC3)ccc12` (stereo not shown) [Compound 54, 2-(Azetidin-1-yl)-6-chloro-quinoline-5-carboxylic acid (3,3-difluoro-1-hydroxycyclohexylmethyl)-amide], for which the IC50 fell in the range of 10 to 100 nM on P2X7 [1] and 101 to 500 nM on P2X7 [2].

On to `CCOC(=O)C1CCCN(c2ccc3c(C(=O)NCC4CCC(F)(F)CC4)c(Cl)ccc3n2)C1` (stereo not shown) [Compound 55, 1-{6-Chloro-5-[(4,4-difluoro-cyclohexylmethyl)-carbamoyl]-quinolin-2-yl}-piperidine-3-carboxylic acid ethyl ester], for which the IC50 on P2X7 [1] was 10 to 100 nM; at P2X7 [2], > 1000 nM.

`O=C(NCC1CCC(F)(F)CC1)c1c(Cl)ccc2nc(N3CCC(CCO)C3)ccc12` (stereo not shown) [Compound 56]: the IC50 on P2X7 [1] and at P2X7 [2] was 10 to 100 nM throughout.

`O=C(NCC1CCC(F)(F)CC1)c1c(Cl)ccc2nc(N3CCC(F)(F)C3)ccc12` [Compound 58]: the figures for the IC50 on P2X7 [1] and at P2X7 [2] were 10 to 100 nM and 101 to 500 nM, respectively.

For `O=C(NCC1CCC(F)(F)CC1)c1c(Cl)ccc2nc(N3CCC(C(F)F)C3)ccc12` (stereo not shown) [Compound 59, 6-Chloro-2-(3-difluoromethyl-pyrrolidin-1-yl)-quinoline-5-carboxylic acid (4,4-difluoro-cyclohexylmethyl)-amide], the IC50 on P2X7 [1] lay in the range of 10 to 100 nM; on P2X7 [2], 101 to 500 nM.

For `O=C(NCC1CCC(F)(F)CC1)c1c(Cl)ccc2nc(NCCCO)ccc12` [Compound 60, 6-Chloro-2-(3-hydroxy-propylamino)-quinoline-5-carboxylic acid (4,4-difluoro-cyclo hexyl methyl)-amide], the IC50 lay in the range of 10 to 100 nM at P2X7 [1] and 101 to 500 nM at P2X7 [2].

These data come from patent US9399623B2, “Quinoline derivatives and their use in neurodegenerative diseases” (Merck Patent GmbH, priority 2014, dated 2016).
